For 14 molecules, IC50 results are on record in ChEMBL document CHEMBL4346732, “Inhibition of neutral lipid synthesis by avarols from a marine sponge” (Bioorg Med Chem Lett, 2019).

Assay [1] can be described thus: Inhibition of SOAT-mediated oleic acid-induced [14C]cholesterol ester accumulation in CHOK1 cells after 6 hrs using [14C]oleic acid by […]. Type of assay: cell-based. The conditions noted are these: Cricetulus griseus, CHO-K1, 6 h.
A short description of assay [2]: Inhibition of DGAT-mediated oleic acid-induced [14C]neutral lipid synthesis in CHOK1 cells after 6 hrs using [14C]oleic acid by […]. It is filed as cell-based. The following applies: Cricetulus griseus, CHO-K1, 6 h.
The subject of the next assay is CHO-K1. The experiment in a line: Cytotoxicity against CHOK1 cells assessed as reduction in cell viability. Type of assay: cell-based. The following applies: Cricetulus griseus.
Assay [3] in a line: Inhibition of SOAT in CHOK1 cell microsomal fraction using [1-14C]oleoyl-CoA as substrate measured after 5 mins by TLC based method. More on the design: species or system Cricetulus griseus.
For assay [4], the target named is T1, Sterol O-acyltransferase 1 (Chlorocebus aethiops, UniProt O77760).
T1 sequence (O77760 whole entry): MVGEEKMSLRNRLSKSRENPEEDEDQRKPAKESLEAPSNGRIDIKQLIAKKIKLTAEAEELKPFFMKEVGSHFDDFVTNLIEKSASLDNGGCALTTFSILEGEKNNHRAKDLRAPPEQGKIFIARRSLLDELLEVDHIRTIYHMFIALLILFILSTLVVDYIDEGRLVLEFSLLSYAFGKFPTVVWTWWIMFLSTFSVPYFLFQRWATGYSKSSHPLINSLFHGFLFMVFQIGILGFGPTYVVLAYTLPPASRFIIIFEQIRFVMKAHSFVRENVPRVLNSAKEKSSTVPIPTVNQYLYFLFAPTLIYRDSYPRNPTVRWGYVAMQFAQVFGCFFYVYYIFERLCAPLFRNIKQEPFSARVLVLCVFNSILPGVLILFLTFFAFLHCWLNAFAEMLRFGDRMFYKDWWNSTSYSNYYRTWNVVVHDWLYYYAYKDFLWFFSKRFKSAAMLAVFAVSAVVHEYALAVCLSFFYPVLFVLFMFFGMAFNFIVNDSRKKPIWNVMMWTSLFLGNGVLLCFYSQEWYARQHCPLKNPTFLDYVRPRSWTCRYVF
The experiment in a line: Inhibition of African green monkey SOAT1 expressed in CHO cells using [1-14C]oleic acid incubated for 6 hrs by TLC based method. It is filed as cell-based.

For assay [5], the target named is T2, Sterol O-acyltransferase 1 (Cricetulus griseus, UniProt Q60457).
T2 sequence (Q60457 whole entry): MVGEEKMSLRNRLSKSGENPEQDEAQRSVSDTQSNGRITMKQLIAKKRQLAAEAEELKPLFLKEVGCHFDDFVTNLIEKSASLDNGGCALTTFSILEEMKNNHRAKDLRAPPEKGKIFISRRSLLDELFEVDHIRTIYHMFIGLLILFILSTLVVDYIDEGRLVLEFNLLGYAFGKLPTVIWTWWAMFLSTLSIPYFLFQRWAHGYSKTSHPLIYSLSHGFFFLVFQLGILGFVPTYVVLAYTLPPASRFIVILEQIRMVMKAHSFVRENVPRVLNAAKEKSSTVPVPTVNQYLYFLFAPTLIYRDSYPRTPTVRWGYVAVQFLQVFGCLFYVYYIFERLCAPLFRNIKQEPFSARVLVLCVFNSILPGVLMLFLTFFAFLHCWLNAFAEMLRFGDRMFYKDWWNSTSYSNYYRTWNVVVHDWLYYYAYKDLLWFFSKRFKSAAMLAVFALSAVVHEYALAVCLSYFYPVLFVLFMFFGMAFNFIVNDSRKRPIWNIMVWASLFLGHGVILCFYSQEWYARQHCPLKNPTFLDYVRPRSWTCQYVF
The experiment in a line: Inhibition of SOAT1 in CHO cell microsomal fraction using [1-14C]oleoyl-CoA as substrate measured after 5 mins by TLC based method.

A short description of assay [6]: Inhibition of SOAT2 in CHO cell microsomal fraction using [1-14C]oleoyl-CoA as substrate measured after 5 mins by TLC based method. More on the design: species or system Cricetulus griseus.
Assay [7] is described as follows: Inhibition of DGAT in CHOK1 cell microsomal fraction using [14C]palmitoyl-CoA as substrate measured after 15 mins TLC based method. Also noted: species or system Cricetulus griseus.
Assay [8] deals with T3, Sterol O-acyltransferase 2 (Chlorocebus aethiops, UniProt O77759).
T3 sequence (O77759 whole entry): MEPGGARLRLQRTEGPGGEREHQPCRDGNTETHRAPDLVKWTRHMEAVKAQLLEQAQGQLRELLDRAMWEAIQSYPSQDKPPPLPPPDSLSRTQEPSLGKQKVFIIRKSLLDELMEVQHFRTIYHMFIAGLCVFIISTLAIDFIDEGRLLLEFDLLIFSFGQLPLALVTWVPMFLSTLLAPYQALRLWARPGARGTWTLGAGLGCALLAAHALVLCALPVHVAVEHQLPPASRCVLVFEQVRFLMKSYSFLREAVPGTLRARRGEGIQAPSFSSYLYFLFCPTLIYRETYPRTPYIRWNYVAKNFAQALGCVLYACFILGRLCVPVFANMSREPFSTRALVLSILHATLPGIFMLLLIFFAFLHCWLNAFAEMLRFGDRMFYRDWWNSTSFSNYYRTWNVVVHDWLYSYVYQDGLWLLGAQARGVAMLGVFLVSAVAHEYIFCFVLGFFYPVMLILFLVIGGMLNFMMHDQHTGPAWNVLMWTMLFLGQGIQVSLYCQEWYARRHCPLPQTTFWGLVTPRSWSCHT
Put plainly: Inhibition of African green monkey SOAT2 expressed in CHO cells using [1-14C]oleic acid incubated for 6 hrs by TLC based method. It is filed as cell-based.

Turning to `CC1=CCC[C@H]2[C@]3(C)Cc4cc(O)ccc4O[C@]3(C)CC[C@]12C`, the values for the concentration for half-maximal inhibition (IC50) (in assay [1]; in assay [2]; in the assay on CHO-K1) were 13.9 µM, more than 31.1 µM and more than 31.1 µM, respectively.

On to `CC(=O)Oc1ccc(O)c(C[C@]2(C)[C@@H](C)CC[C@]3(C)C(C)=CCC[C@@H]23)c1`, for which the IC50 in assay [1] was 23.1 µM; in [2], more than 27.3 µM; with CHO-K1, more than 27.3 µM.

On to `C=C1CCC[C@H]2[C@](C)(Cc3cc(OC)ccc3O)[C@@H](C)CC[C@]12C`, for which the results for the half-maximal inhibitory concentration (IC50) (in assay [1]; in [2]; in the assay with CHO-K1) were 10.4 µM, more than 29.6 µM and more than 29.6 µM, respectively.

For the molecule `COc1ccc(O)c(C[C@]2(C)[C@@H](C)CC[C@]3(C)C(C)=CCC[C@@H]23)c1`, the IC50 in assay [1] is 11.4 µM; in [2] it was more than 29.6 µM; in the assay with CHO-K1, more than 29.6 µM.

For the molecule `C=C1CCC[C@H]2[C@](C)(Cc3cc(O)ccc3OC(C)=O)[C@@H](C)CC[C@]12C`, the values for the IC50 (in assay [1]; in assay [2]; in the assay on CHO-K1) were 11.9 µM, more than 27.3 µM and more than 27.3 µM, respectively.

As to `CC(=O)Oc1ccc(OC(C)=O)c(C[C@]2(C)[C@@H](C)CC[C@]3(C)C(C)=CCC[C@@H]23)c1`, the IC50 in assay [1] is 16.5 µM; in assay [2] it was 23.5 µM; with CHO-K1, more than 24.4 µM.

`C=C1CCC[C@H]2[C@](C)(Cc3cc(OC(=O)CC)ccc3OC(=O)CC)[C@@H](C)CC[C@]12C`: the IC50 in assay [1] is 11 µM; in [2] it was more than 22.8 µM; with CHO-K1, more than 22.8 µM.

As to `C=C1CCC[C@H]2[C@](C)(Cc3cc(O)ccc3O)[C@@H](C)CC[C@]12C`, the concentration for half-maximal inhibition (IC50) in assay [1] came to 11 µM; in [3], 15.6 µM; in assay [4], 19.2 µM; in assay [5] it was 32 µM; in [2], 14.2 µM; in assay [6], 14 µM. Also, the results for the half-inhibitory concentration (IC50) (in the assay with CHO-K1; in assay [7]; in assay [8]) were more than 30.9 µM, 44.3 µM and 19.1 µM, respectively.

As for `CCC(=O)Oc1ccc(OC(=O)CC)c(C[C@]2(C)[C@@H](C)CC[C@]3(C)C(C)=CCC[C@@H]23)c1`, the figures for the IC50 (in assay [1]; in assay [2]; in the assay on CHO-K1) were 16.7 µM, 13.5 µM and more than 22.8 µM, respectively.

Take `C=C1CCC[C@H]2[C@](C)(Cc3cc(OC(C)=O)ccc3OC(C)=O)[C@@H](C)CC[C@]12C`: the IC50 in [1] was 10.8 µM; in assay [2], more than 24.4 µM; with CHO-K1 it was more than 24.4 µM.

Consider `CC1=CCC[C@H]2[C@](C)(CC3=CC(=O)C=C(N)C3=O)[C@@H](C)CC[C@]12C`, for which the IC50 was 13.2 µM in assay [1], 27.5 µM in [2] and more than 30.9 µM in the assay with CHO-K1.

Take `C=C1CCC[C@H]2[C@](C)(Cc3cc(OC(C)=O)ccc3O)[C@@H](C)CC[C@]12C`: the values for the concentration for half-maximal inhibition (IC50) (in assay [1]; in [2]; in the assay with CHO-K1) were 16 µM, more than 27.3 µM and more than 27.3 µM, respectively.

As to `CC(=O)Oc1ccc(O)cc1C[C@]1(C)[C@@H](C)CC[C@]2(C)C(C)=CCC[C@@H]12`, the IC50 was 13.7 µM in assay [1], more than 27.3 µM in assay [2] and more than 27.3 µM in the assay with CHO-K1.

As to `CC1=CCC[C@H]2[C@](C)(Cc3cc(O)ccc3O)[C@@H](C)CC[C@]12C` [AVAROL], the IC50 turned out to be 5.74 µM in assay [1]; 7.31 µM in [3]; 14.2 µM in assay [4]; 12 µM in assay [5]; 6.8 µM in assay [2]; 8.1 µM in [6]. Also, the results for the IC50 (in the assay on CHO-K1; in assay [7]; in assay [8]) were more than 30.9 µM, 20 µM and 14.8 µM, respectively.
